For one data set, the system named is rabbits. As to the kind of experiment: Primary skin irritation test on animals (Draize P.I.I.). As to conditions: depilated back; for P.I.I. (Primary Irritation Index): 0.5 ml of 1% solution in 1,3-butylene glycol:ethanol 7:3, observed 24 or 72 hours later; for Evaluation (skin irritation): 1% solution, according to Draize's P.I.I.
The target in the next data set is T1, RARα (Homo sapiens, UniProt P10276).
T1 construct: expressed in transfected cells; host or cells: CV-1 cells (ATCC)
T1 sequence (P10276 1-462): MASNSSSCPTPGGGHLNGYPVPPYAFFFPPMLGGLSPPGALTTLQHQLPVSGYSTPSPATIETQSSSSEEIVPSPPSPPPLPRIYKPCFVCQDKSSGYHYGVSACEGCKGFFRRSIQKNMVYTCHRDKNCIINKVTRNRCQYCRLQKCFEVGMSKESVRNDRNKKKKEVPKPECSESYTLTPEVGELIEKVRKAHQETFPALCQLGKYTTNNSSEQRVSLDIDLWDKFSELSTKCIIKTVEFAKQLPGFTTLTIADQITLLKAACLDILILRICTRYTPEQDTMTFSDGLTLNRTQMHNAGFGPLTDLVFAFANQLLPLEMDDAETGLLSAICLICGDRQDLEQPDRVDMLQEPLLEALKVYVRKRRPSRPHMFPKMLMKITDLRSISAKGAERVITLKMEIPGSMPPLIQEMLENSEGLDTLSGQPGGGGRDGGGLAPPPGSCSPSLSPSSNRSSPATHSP
The experiment in a line: RARE-luciferase reporter assay in transfected CV-1 cells (affinity to retinoic acid receptor), RARα. As to conditions: treated 24 hours at final concentration 10^−4M, control group 1000. The format is cell-based. An excerpt:
This example illustrates affinities of hydroxamic acid derivatives obtained in Examples 1 to 55 to retinoic acid receptor, in comparison with retinol and retinoic acid.
(§1) Receptor-expression plasmid, pECE-RARα and pECE-RARγ were engineered by the prior method (Mol. Cell. Biol. 1996, 16, 1138-1149). RARE-tk-Luc, i.e. RARE reporter was obtained by inserting RARE fragment from b-RARE-tk-CAT into pGL3 luciferase basic vector. CV-1 cells were obtained from ATCC (American Type Culture Collection).
CV-1 cells were seeded into 96-well microtiter plate at 5,000 cells per well and cultured in DMEM (Dulbecco's Modified Eagle's Media) supplemented with 2.5% fetal bovine serum. 24 Hours later, the cells were transfected with 10 ng of pECE-RARα, long of pECE-RARγ, 100 ng of reporter plasmid and 100 ng of β-galactosidase-expression vector, using LipofectaminPlus (GIBCO BRL, grand island, N.Y.). 24 Hours post-transfection, the cells were treated for 24 hours with hydroxamic acid derivatives of Examples 1˜55 or retinol at a final concentration of 10^−4M or with retinoic acid at a final concentration of 10^−5M, which is 10 times lower concentration than those of the former.
In general terms: In a reporter assay the amount or activity of a reporter protein is the signal.

The subject of a further data set is white guinea pigs. The experiment in a line: Phototoxicity test (UVA irradiation). The conditions noted are these: for Evaluation (phototoxicity): 1%(w/v) solution, UVA 15 J/cm^2; for Phototoxic index: 50 μl of 1%(w/v) solution, UVA 320~380 nm 15 J/cm^2, observed 24, 48 and 72 hours.
For the next data set, the target named is T2, RARγ (Homo sapiens, UniProt P13631).
T2 construct: expressed in transfected cells; host or cells: CV-1 cells (ATCC)
T2 sequence (P13631 1-454): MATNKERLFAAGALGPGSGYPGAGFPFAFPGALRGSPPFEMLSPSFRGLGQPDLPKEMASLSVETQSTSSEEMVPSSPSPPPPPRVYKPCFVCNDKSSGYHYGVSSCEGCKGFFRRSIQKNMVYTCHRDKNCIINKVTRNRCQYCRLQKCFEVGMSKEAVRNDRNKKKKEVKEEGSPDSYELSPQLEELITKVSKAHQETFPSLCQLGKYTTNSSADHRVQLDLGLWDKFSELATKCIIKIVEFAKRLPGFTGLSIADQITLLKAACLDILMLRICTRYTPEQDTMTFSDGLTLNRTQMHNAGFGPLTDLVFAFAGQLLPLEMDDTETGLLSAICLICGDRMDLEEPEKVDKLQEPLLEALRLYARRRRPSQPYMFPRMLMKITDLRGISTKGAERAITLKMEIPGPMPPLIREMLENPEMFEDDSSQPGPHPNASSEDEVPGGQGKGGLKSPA
The experiment in a line: RARE-luciferase reporter assay in transfected CV-1 cells (affinity to retinoic acid receptor), RARγ. The format is cell-based. As to conditions: treated 24 hours at final concentration 10^−4M, control group 5000. On the procedure:
as §1
CV-1 cells were seeded into 96-well microtiter plate at 5,000 cells per well and cultured in DMEM (Dulbecco's Modified Eagle's Media) supplemented with 2.5% fetal bovine serum. 24 Hours later, the cells were transfected with 10 ng of pECE-RARα, long of pECE-RARγ, 100 ng of reporter plasmid and 100 ng of β-galactosidase-expression vector, using LipofectaminPlus (GIBCO BRL, grand island, N.Y.).

A further data set relates to procollagen type I. As to the kind of experiment: Effect on collagen biosynthesis (procollagen type I ELISA) in human fibroblasts. The class given is cell-based. The conditions noted are these: 10^−4M, 24 hours, serum-free medium, relative to control group = 100. On the procedure:
Human fibroblasts were seeded into 24-well plate at 1×10^5 cells per well and then cultured to 90% of growth.
For each supernatant, procollagen production was measured with procollagen type I ELISA kit.
In general terms: An ELISA detects its analyte on a solid surface through an enzyme-linked reagent.

In another data set the test system is collagenase. As to the kind of experiment: Inhibition of collagenase expression in human fibroblasts (ELISA kit). The conditions noted are these: 10^−4M, 24 hours, serum-free medium, relative to control group = 100. The class given is cell-based. On the procedure:
Human fibroblasts were seeded into 96-well microtiter plate at 5,000 cells per well and then cultured to 90% of growth in DMEM (Dulbecco's Modified Eagle's Media) supplemented with 2.5% fetal bovine serum. Then, the fibroblastes were cultured in serum-free DMEM for 24 hours and treated for 24 hours with 10^−4M of hydroxamic acid derivatives of Examples 1˜55, retinol or retinoic acid in serum-free medium, and then the culture fluid was collected.
(§2) For each culture fluid, collagenase production was measured with collagenase kit (commercialized by AmershamPharmacia Biotech). Firstly, the culture fluid was added to 96-well plate spread with primary collagenase antibody and then antigen-antibody reaction was performed in an incubator for 3 hours. Later, chromophore-conjugated secondary antibody was added to the 96-well plate and then reacted for 15 minutes. Then, color former was added thereto, to induce development at room temperature for 15 minutes. 1M of sulfuric acid was added to stop the reaction. […] The color density depends on the progress of the reaction. The absorbance of the yellow 96-well plate was measured at 405 nm using absorptiometer. Collagenase expression was calculated by the following equation 1. Herein, the absorbance of the culture fluid collected from the medium with no material treated was used as a control. Collagenase expression (%)=(Absorbance of test group with said material treated/Absorbance of control group with no material treated)×100 [Equation 1]
Collagenase expression was evaluated as a relative value, in consideration that the value of control group with no material treated is 100.

The subject of the next data set is elastase. As to the kind of experiment: Inhibition of elastase expression in human fibroblasts (ELISA kit). As to conditions: 10^−4M, 24 hours, serum-free medium, relative to control group = 100. The class given is cell-based. On the procedure: as §2, with “elastase” for “collagenase”, “Elastase” for “Collagenase”, “2.” for “1.”, “2]” for “1]”
Elastase expression was evaluated as a relative value, in consideration that the value of control group with no material treated is 100.

Method for rabbits: Test was performed using fifty-six (56) of healthy male rabbits whose backs were depilated. […] 0.5ml of the test sample solution was applied to the right site of 2.5 cm×2.5 cm region on each of the depilated back. Left site with no sample treated was compared as a control. 24 hours or 72 hours later, skin abnormality such as erythema, crust and edema was observed.
Based on the score of skin response, skin irritation was evaluated according to Draize's P.I.I.(Primary Irritation Index) and compared with retinoic acid.
Method for white guinea pigs: Test was performed for twenty-five (25) of white guinea pigs whose backs were depilated and fixed. On both sides of the back, six(6) sites of 2 cm×2 cm, three(3) per side were sectioned. Right sites were compared as controls with no irradiation (UV non-irradiation sites) and left sites were irradiated (UV irradiation sites).
30 Minutes later, right sites were shielded with aluminum foil and UVA(320˜380 nm) was irradiated at a distance of about 10 cm therefrom using Waldmann to the final energy of 15 J/cm^2. After 24, 48 and 72 hours elapsed, skin response of guinea pig was observed. […] Evaluation was estimated for each elapsed time, i.e. 24, 48 and 72 hours and maximum scores were selected, to calculate irritation index by the following equation 3. Then, phototoxic index was calculated by the following equation 4. Irritation index=(ΣMaximum of erythema+ΣMaximum of edema)/Number of animals [Equation 3] Phototoxic index=(Irritation index of UV irradiation site)−(Irritation index of UV non-irradiation site) Equation 4]

Consider `Cc1ccc(C(=O)Nc2ccc(CC(=O)NO)cc2)cc1` [Example 24, N-[4-(N-hydroxycarbamoylmethyl)phenyl][4-methylphenyl]carboxyamide], for which, in the data set on rabbits, the “P.I.I. (Primary Irritation Index)” value is reported as 0.321 and the “Evaluation (skin irritation)” value is given as “No irritation”. Further, the “Luciferase activity RARα” value at RARα is 12100. Further, in the data set with white guinea pigs, the “Evaluation (phototoxicity)” value was “No phototoxicity (lower value than 0.5, criterion value to be estimated as no phototoxicity)” and the Phototoxic index was 0. For the same compound, the “Luciferase activity RARγ” value at RARγ is 11210. Besides, in the data set on procollagen type I, the “Collagen biosynthesis (%)” value turned out to be 121%. Besides, the “Collagenase expression (%)” value in the data set with collagenase worked out at 76%. Further, the “Elastase expression (%)” value in the data set on elastase was 82%.
Consider `Cc1ccc(NC(=O)c2ccc(C(=O)NO)cc2)cc1` [Example 35, [4-(N-hydroxycarbamoyl)phenyl]-N-[4-methylphenyl]carboxyamide], for which, in the data set with rabbits, the “P.I.I. (Primary Irritation Index)” value is given as 0.245 and the “Evaluation (skin irritation)” value was “No irritation”. In addition, the “Luciferase activity RARα” value on RARα worked out at 14500. For the same compound, in the data set on white guinea pigs, the “Evaluation (phototoxicity)” value is recorded as “No phototoxicity (lower value than 0.5, criterion value to be estimated as no phototoxicity)” and the Phototoxic index is 0. Also, the “Luciferase activity RARγ” value at RARγ is reported as 11300. In addition, the “Collagen biosynthesis (%)” value in the data set with procollagen type I turned out to be 111%. Also, in the data set on collagenase, the “Collagenase expression (%)” value is listed as 90%. Moreover, the “Elastase expression (%)” value in the data set on elastase amounted to 71%.
As for `CC(C)(C)c1ccc(NC(=O)c2ccc(C(=O)NO)cc2)cc1` [Example 41, [4-(N-hydroxycarbamoyl)phenyl]-N-[4-tert-butylphenyl]carboxyamide], in the data set with rabbits, the “P.I.I. (Primary Irritation Index)” value stood at 0.367 and the “Evaluation (skin irritation)” value is reported as “No irritation”. The “Luciferase activity RARα” value at RARα is given as 14300. Besides, in the data set with white guinea pigs, the “Evaluation (phototoxicity)” value is given as “No phototoxicity (lower value than 0.5, criterion value to be estimated as no phototoxicity)” and the Phototoxic index is 0. On RARγ, the “Luciferase activity RARγ” value worked out at 11211. Also, the “Collagen biosynthesis (%)” value in the data set with procollagen type I is reported as 115%. Also, in the data set with collagenase, the “Collagenase expression (%)” value turned out to be 88%. Besides, in the data set with elastase, the “Elastase expression (%)” value came out at 78%.
Regarding `Cc1ccc(C(=O)Nc2ccc(C(=O)NO)cc2)cc1C` [Example 9, N-[4-(N-hydroxycarbamoyl)phenyl][3,4-dimethylphenyl]carboxyamide], in the data set on rabbits, the “P.I.I. (Primary Irritation Index)” value turned out to be 0.470 and the “Evaluation (skin irritation)” value is recorded as “No irritation”. For the same compound, the “Luciferase activity RARα” value on RARα was 12000. For the same compound, in the data set on white guinea pigs, the “Evaluation (phototoxicity)” value is given as “No phototoxicity (lower value than 0.5, criterion value to be estimated as no phototoxicity)” and the Phototoxic index was determined as 0. In addition, the “Luciferase activity RARγ” value on RARγ is 12000. In addition, the “Collagen biosynthesis (%)” value in the data set on procollagen type I was 120%. For the same compound, the “Collagenase expression (%)” value with collagenase worked out at 65%. For the same compound, the “Elastase expression (%)” value with elastase was found to be 67%.
`CCCc1ccc(NC(=O)c2ccc(C(=O)NO)cc2)cc1` [Example 38, [4-(N-hydroxycarbamoyl)phenyl]-N-[4-propylphenyl]carboxyamide]: in the data set on rabbits, the “P.I.I. (Primary Irritation Index)” value is 0.567 and the “Evaluation (skin irritation)” value was “No irritation”. The “Luciferase activity RARα” value on RARα is recorded as 17500. In the data set on white guinea pigs, the “Evaluation (phototoxicity)” value is listed as “No phototoxicity (lower value than 0.5, criterion value to be estimated as no phototoxicity)” and the Phototoxic index amounted to 0. In addition, the “Luciferase activity RARγ” value on RARγ was found to be 10400. Further, the “Collagen biosynthesis (%)” value in the data set with procollagen type I amounted to 109%. The “Collagenase expression (%)” value in the data set on collagenase was found to be 87%. The “Elastase expression (%)” value in the data set on elastase is given as 69%.
`CC(C)c1ccc(NC(=O)c2ccc(C(=O)NO)cc2)cc1` [Example 39, [4-(N-hydroxycarbamoyl)phenyl]-N-[4-isopropylphenyl]carboxyamide]: in the data set on rabbits, the “P.I.I. (Primary Irritation Index)” value came to 0.145 and the “Evaluation (skin irritation)” value was “No irritation”. Moreover, the “Luciferase activity RARα” value on RARα worked out at 18700. Also, in the data set with white guinea pigs, the “Evaluation (phototoxicity)” value is on record as “No phototoxicity (lower value than 0.5, criterion value to be estimated as no phototoxicity)” and the Phototoxic index turned out to be 0. For the same compound, the “Luciferase activity RARγ” value on RARγ was 10100. Also, in the data set with procollagen type I, the “Collagen biosynthesis (%)” value was determined as 105%. Further, in the data set with collagenase, the “Collagenase expression (%)” value is recorded as 78%. The “Elastase expression (%)” value with elastase stood at 87%.
As for `Cc1ccc(N(C)C(=O)c2ccc(C(=O)NO)cc2)cc1C` [Example 53, [4-(N-hydroxycarbamoyl)phenyl]-N-methyl-N-[3,4-dimethylphenyl]carboxyamide], in the data set with rabbits, the “P.I.I. (Primary Irritation Index)” value was determined as 0.321 and the “Evaluation (skin irritation)” value is reported as “No irritation”. Besides, the “Luciferase activity RARα” value at RARα was 14500. Moreover, in the data set on white guinea pigs, the “Evaluation (phototoxicity)” value is on record as “No phototoxicity (lower value than 0.5, criterion value to be estimated as no phototoxicity)” and the Phototoxic index was determined as 0. For the same compound, on RARγ, the “Luciferase activity RARγ” value came to 12300. For the same compound, in the data set on procollagen type I, the “Collagen biosynthesis (%)” value came out at 122%. The “Collagenase expression (%)” value with collagenase is given as 75%. Further, in the data set with elastase, the “Elastase expression (%)” value was found to be 80%.

For the origin of these results see patent publication US7282522B2, “Hydroxamic acid derivatives and the method for preparing thereof” (Amorepacific Corporation, priority 2003, dated 2007).
